For two compounds, IC50 results are on record in BindingDB's records for doi:10.1021/np070341r (Leibniz-Institute For Natural Product Research and …, 2008).

Bounds are passed on as bounds.

The assay addresses Dual specificity tyrosine-phosphorylation-regulated kinase 1A (Homo sapiens, UniProt Q13627). Put plainly: Inhibition of human recombinant DYRK1A.

By IC50 is commonly meant the concentration needed to halve the response being measured. In the case of `COC(=O)[C@]1(Cc2ccc(OS(=O)(=O)O)c(CC=C(C)C)c2)OC(=O)C(=O)C1c1ccc(O)cc1` (some centres not stated) [butyrolactone I 4''-sulfate], the IC50 was above 100 µM.
Next, `COC(=O)[C@@]1(Cc2ccc(O)c(CC=C(C)C)c2)OC(=O)C(=O)C1c1ccc(O)cc1` (stereo partly drawn) [(S)-methyl 4-hydroxy-2-(4-hydroxy-3-(3-methylbut-2-enyl)benzyl)-3-(4-hydroxyphenyl)-5-oxo-2,5-dihydrofuran-2-carboxylate]: above 100 µM.
